In this experiment the test system is horses demonstrating agitated behaviour. In words: Feeding trial of calcium supplements in horses demonstrating agitated behaviour, marked by the feeder. It is filed as in vivo, horse. To be noted: for average mark for horses: mean of the feeders' marks (1 bad, 5 good); for feeder's general comment on the horse's behaviour during the trial / mark provided by the feeder, based on the effect noted in the behaviour of the horse: single horse; for mark provided by the feeder, based on the effect noted in the behaviour of the horse: mark between 1 and 5 (bad is 1, good is 5). An excerpt:
The horses were given doses of calcium chelate calculated to provide a loading dose of 12 grams of calcium per day for five days each week for a period of a month. In the calcium carbonate subject the feed dose was 24 or 48 grams of calcium per day. The feeder provided a mark between 1 and 5 where bad is 1 and good is 5. The mark allocated was based on the effect noted in the behaviour of the horse. The feeder also provided general comments on the horses' behaviour during the trial.

[1] abbreviates: 60 grams of calcium carbonate only.
Setting [2] is: 120 grams of calcium carbonate only.
Where [3] appears, read: 12 grams of calcium per day, five days each week for a month.
Where [4] appears, read: loading dose of 12 grams of calcium per day, five days each week for a month, supplement of the calcium chelate only.

“And” between values parts separate entries of the source, which are not always exact repeats. Identical values can stand only once. “Also recorded” adds a separate entry of the source.

With `O=C([O-])[O-].[Ca+2]` [calcium carbonate, reference compound], the “average mark for horses” value (feed dose 24 or 48 grams of calcium per day as calcium carbonate) is listed as 1.67. Moreover, under setting [1], the “feeder's general comment on the horse's behaviour during the trial” value (“feeder's general comment” below) is recorded as “not much difference in the behaviour; also recorded: No significant change”; the “mark provided by the feeder, based on the effect noted in the behaviour of the horse” value (“mark provided by the feeder, based” for short) was 1.5 and 1. Moreover, under setting [2], the “feeder's general comment” value was “small improvement in the horse's behaviour but not sufficient for the horse to be ridden” and the “mark provided by the feeder, based” value was 2.5.

For the molecule `O=C([O-])CC(O)(CC(=O)[O-])C(=O)[O-].O=C([O-])CC(O)(CC(=O)[O-])C(=O)[O-].[Ca+2].[Ca+2].[Ca+2]` [calcium citrate], under setting [3], the “average mark for horses” value is 4.6; the “feeder's general comment” value is “a lot calmer and rational; also recorded: much calmer and friendlier; also recorded: very good response; also recorded: much calmer generally”. Besides, the “mark provided by the feeder, based” value under setting [4] was 4.5 and 4 and 5.

Take calcium gluconate: under setting [3], the “average mark for horses” value worked out at 3.33 and the “feeder's general comment” value was “calmed down without losing any energy; also recorded: did not notice a difference in the horses' behaviour for the first couple of weeks; also recorded: within two weeks the horse was completely calm”. The “mark provided by the feeder, based” value under setting [4] was 4.5 and 2.5 and 3.

These data come from patent US20150201650A1, “DIETARY SUPPLEMENT” (Vetafarm Europe Ltd, priority 2009, published 2015).
